# Data published in ChEMBL document CHEMBL4825678, “Oshimalides A and B, Sesterterpenes of the Manoalide Class from a Luffariella sp. Deep-Sea Marine Sponge: Application of Asymmetric Dihydroxylation in Structure Elucidation” (2021).
# System: Staphylococcus aureus
# Test: Antimicrobial activity against staphylococcus aureus 209P JC-1 incubated for 20 hrs by agar dilution method
# Assay type: functional
smiles,measurement,value
CC1=CC(=O)C[C@@H](C)[C@@]1(C)CC/C(C)=C/CCC1=CC[C@H](C2=CC(=O)OC2)OC1,MIC,51 µg/mL
